Source: patent US9951077B2, “Aminopyridazinone compounds as protein kinase inhibitors” (ETERNITY BIOSCIENCE INC., priority 2014, dated 2018)

target: Btk (Homo sapiens (Human), UniProt Q06187); experiment: Btk kinase assay (ADP-Glo); assay type: biochemical; details: ATP 1.2 μM, 60 minutes, room temperature; read-out: BTK enzyme IC50
Summary of the method: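 Recombinant human Btk (2 ng/μl) with poly GT peptide (0.3 μM), ATP (1.2 μM), MnCl2 (1.4 mM) and DTT (40 nM), 60 min at room temperature (22±1° C.). ADP formed was read by ADP-Glo luminescence after ATP depletion. IC50 from log concentration versus percent inhibition relative to DMSO vehicle.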

Sequence of Btk (Q06187 whole entry): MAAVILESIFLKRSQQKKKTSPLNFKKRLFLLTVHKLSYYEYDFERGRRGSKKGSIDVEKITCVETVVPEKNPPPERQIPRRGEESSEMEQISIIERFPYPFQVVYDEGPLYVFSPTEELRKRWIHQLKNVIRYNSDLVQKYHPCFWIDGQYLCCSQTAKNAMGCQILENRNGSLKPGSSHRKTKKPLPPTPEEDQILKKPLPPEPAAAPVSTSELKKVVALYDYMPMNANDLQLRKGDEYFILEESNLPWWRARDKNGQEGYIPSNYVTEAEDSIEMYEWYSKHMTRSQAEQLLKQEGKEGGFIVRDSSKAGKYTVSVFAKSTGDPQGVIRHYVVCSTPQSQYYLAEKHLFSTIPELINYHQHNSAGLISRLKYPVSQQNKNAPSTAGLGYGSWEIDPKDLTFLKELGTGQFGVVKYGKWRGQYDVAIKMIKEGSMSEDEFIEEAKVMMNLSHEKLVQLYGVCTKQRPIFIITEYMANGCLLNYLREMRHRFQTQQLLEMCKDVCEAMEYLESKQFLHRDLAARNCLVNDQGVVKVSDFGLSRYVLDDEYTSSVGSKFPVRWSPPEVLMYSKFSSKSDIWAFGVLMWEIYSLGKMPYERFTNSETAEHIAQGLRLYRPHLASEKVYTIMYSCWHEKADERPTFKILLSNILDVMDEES

Compound	IC50 [nM]
CC#CC(=O)N1CC[C@@H](n2nc(-c3ccc(Oc4ccccc4)cc3)c3c(N)n[nH]c(=O)c32)C1 [Example 111, (R)-4-amino-1-(1-(but-2-ynoyl)pyrrolidin-3-yl)-3-(4-phenoxyphenyl)-1H-pyrazolo[3,4-d]pyridazin-7(6H)-one]	≤ 10
CN(C)C/C=C/C(=O)NC1CCC(n2cc(-c3ccc(Oc4ccccc4)cc3)c3c(N)n[nH]c(=O)c32)CC1 (stereo not drawn) [Example 46, (E)-N-[4-[4-amino-7-oxo-3-(4-phenoxyphenyl)-6H-pyrrolo[2,3-d]pyridazin-1-yl]cyclohexyl]-4-(dimethylamino)but-2-enamide]	10 to 1000
CN(C)C/C=C/C(=O)NC1C2CCC1CC(n1cc(-c3ccc(Oc4ccccc4)cc3)c3c(N)n[nH]c(=O)c31)C2 (stereo not drawn) [Example 48, (E)-N-[3-[4-amino-7-oxo-3-(4-phenoxyphenyl)-6H-pyrrolo[2,3-d]pyridazin-1-yl]-8-bicyclo[3.2.1]octanyl]-4-(dimethylamino)but-2-enamide]	10 to 1000
4-amino-3-(4-phenoxyphenyl)-1-(1- prop-2-enoyl-3-piperidyl)-6H- pyrazolo[3,4-d]pyridazin-7-one [Example 2]	≤ 10
CN(C)C/C=C/C(=O)N1CCC[C@H]1Cn1cc(-c2ccc(Oc3ccccc3)cc2)c2c(N)n[nH]c(=O)c21 [Example 41, 4-amino-1-[[(2S)-1-[(E)-4-(dimethylamino)but-2-enoyl]pyrrolidin-2-yl]methyl]-3-(4-phenoxyphenyl)-6H-pyrrolo[2,3-d]pyridazin-7-one]	10 to 1000
CN(C)C/C=C/C(=O)N1CCC[C@@H](n2c(F)c(-c3ccc(Oc4ccccc4)cc3)c3c(N)n[nH]c(=O)c32)C1 [Example 82, 4-amino-1-[(3R)-1-[(E)-4-(dimethylamino)but-2-enoyl]-3-piperidyl]-2-fluoro-3-(4-phenoxyphenyl)-6H-pyrrolo[2,3-d]pyridazin-7-one]	≤ 10
C=CC(=O)N1CCC(Cn2cc(-c3ccc(Oc4ccccc4)cc3)c3c(N)n[nH]c(=O)c32)C1 (stereo not drawn) [Example 8, 4-amino-3-(4-phenoxyphenyl)-1-[(1-prop-2-enoylpyrrolidin-3-yl)methyl]-6H-pyrrolo[2,3-d]pyridazin-7-one]	10 to 1000
Nc1n[nH]c(=O)c2c1c(-c1ccc(Oc3ccccc3)cc1)cn2[C@@H]1CCCN(C(=O)CCl)C1 [Example 22, 4-amino-1-[(3R)-1-(2-chloroacetyl)-3-piperidyl]-3-(4-phenoxyphenyl)-6H-pyrrolo[2,3-d]pyridazin-7-one]	10 to 1000
C=CC(=O)N1CCC[C@@H](n2cc(-c3ccc(Oc4ccccc4)cc3F)c3c(N)n[nH]c(=O)c32)C1 [Example 76, (R)-1-(1-acryloylpiperidin-3-yl)-4-amino-3-(2-fluoro-4-phenoxyphenyl)-1H-pyrrolo[2,3-d]pyridazin-7(6H)-one]	10 to 1000
Nc1n[nH]c(=O)c2c1c(-c1ccc(Oc3ccccc3)cc1)cn2[C@@H]1CCCN(C(=O)/C=C/CNC2CC2)C1 [Example 28, 4-amino-1-[(3R)-1-[(E)-4-(cyclopropylamino)but-2-enoyl]-3-piperidyl]-3-(4-phenoxyphenyl)-6H-pyrrolo[2,3-d]pyridazin-7-one]	≤ 10
CC#CC(=O)N1CCCC(n2cc(-c3ccc(Oc4ccccc4)cc3)c3c(N)n[nH]c(=O)c32)C1 (stereo not drawn) [Example 21, 4-amino-1-(1-(but-2-ynoyl)piperidin-3-yl)-3-(4-phenoxyphenyl)-1H-pyrrolo[2,3-d]pyridazin-7(6H)-one]	1000 to 100000
C=CC(=O)N1CCC(n2cc(-c3ccc(Oc4ccccc4)cc3)c3c(N)n[nH]c(=O)c32)CC1 [Example 9, 4-amino-3-(4-phenoxyphenyl)-1-(1-prop-2-enoyl-4-piperidyl)-6H-pyrrolo[2,3-d]pyridazin-7-one]	1000 to 100000
N#CN1CCCC(n2cc(-c3ccc(Oc4ccccc4F)cc3)c3c(N)n[nH]c(=O)c32)C1 (stereo not drawn) [Example 108, 3-(4-amino-3-(4-(2-fluorophenoxy)phenyl)-7-oxo-6,7-dihydro-1H-pyrrolo[2,3-d]pyridazin-1-yl)piperidine-1-carbonitrile]	≤ 10
N#CN1CCC[C@@H](n2cc(-c3ccc(Oc4ccccc4F)cc3)c3c(N)n[nH]c(=O)c32)C1 [Example 87, (R)-3-(4-amino-3-(4-(2-fluorophenoxy)phenyl)-7-oxo-6,7-dihydro-1H-pyrrolo[2,3-d]pyridazin-1-yl)piperidine-1-carbonitrile]	≤ 10
C=CC(=O)N1CCC[C@@H](n2nc(-c3ccc(Oc4ccccc4F)cc3)c3c(N)n[nH]c(=O)c32)C1 [Example 109, (R)-1-(1-acryloylpiperidin-3-yl)-4-amino-3-(4-(2-fluorophenoxy)phenyl)-1H-pyrazolo[3,4-d]pyridazin-7(6H)-one]	10 to 1000
C=CC(=O)N1CCC[C@@H](n2cc(-c3ccc(Oc4ccccc4)cc3)c3c(N)n[nH]c(=O)c32)C1 [Example 1, (R)-1-(1-acryloylpiperidin-3-yl)-4-amino-3-(4-phenoxyphenyl)-1H-pyrrolo[2,3-d]pyridazin-7(6H)-one]	≤ 10
C=CC(=O)N1CC[C@@H](n2cc(-c3ccc(Oc4ccccc4)cc3)c3c(N)n[nH]c(=O)c32)C1 [Example 4, 4-amino-3-(4-phenoxyphenyl)-1-[(3R)-1-prop-2-enoylpyrrolidin-3-yl]-6H-pyrrolo[2,3-d]pyridazin-7-one]	10 to 1000
C=CC(=O)N1CCC[C@@H](n2nc(-c3ccc(Oc4ccccc4)cc3)c3c(N)n[nH]c(=O)c32)C1 [Example 110, (R)-1-(1-acryloylpiperidin-3-yl)-4-amino-3-(4-phenoxyphenyl)-1H-pyrazolo[3,4-d]pyridazin-7(6H)-one]	10 to 1000
CN(C)C/C=C/C(=O)N1CCC[C@@H](n2cc(-c3ccc(Oc4ccccc4)cc3F)c3c(N)n[nH]c(=O)c32)C1 [Example 77, 4-amino-1-[(3R)-1-[(E)-4-(dimethylamino)but-2-enoyl]-3-piperidyl]-3-(2-fluoro-4-phenoxy-phenyl)-6H-pyrrolo[2,3-d]pyridazin-7-one]	≤ 10
C=CC(=O)N1CCC[C@H]1Cn1cc(-c2ccc(Oc3ccccc3)cc2)c2c(N)n[nH]c(=O)c21 [Example 6, 4-amino-3-(4-phenoxyphenyl)-1-[[(2S)-1-prop-2-enoylpyrrolidin-2-yl]methyl]-6H-pyrrolo[2,3-d]pyridazin-7-one]	10 to 1000
CCN(CC)C/C=C/C(=O)N1CCC[C@@H](n2cc(-c3ccc(Oc4ccccc4)cc3)c3c(N)n[nH]c(=O)c32)C1 [Example 27, 4-amino-1-[(3R)-1-[(E)-4-(diethylamino)but-2-enoyl]-3-piperidyl]-3-(4-phenoxyphenyl)-6H-pyrrolo[2,3-d]pyridazin-7-one]	≤ 10
Nc1n[nH]c(=O)c2c1c(-c1ccc(Oc3ccccc3)cc1)cn2[C@@H]1CCCN(C(=O)C2CC2)C1 [Example 23, 4-amino-1-[(3R)-1-(cyclopropanecarbonyl)-3-piperidyl]-3-(4-phenoxyphenyl)-6H-pyrrolo[2,3-d]pyridazin-7-one]	10 to 1000
CC#CC(=O)N1CC[C@@H](n2cc(-c3ccc(Oc4ccccc4)cc3)c3c(N)n[nH]c(=O)c32)C1 [Example 97, (R)-4-amino-1-(1-(but-2-ynoyl)pyrrolidin-3-yl)-3-(4-phenoxyphenyl)-1H-pyrrolo[2,3-d]pyridazin-7(6H)-one]	10 to 1000
CCC(=O)N1CCCC(n2cc(-c3ccc(Oc4ccccc4)cc3)c3c(N)n[nH]c(=O)c32)C1 (stereo not drawn) [Example 19, 4-amino-3-(4-phenoxyphenyl)-1-(1-propionylpiperidin-3-yl)-1H-pyrrolo[2,3-d]pyridazin-7(6H)-one]	10 to 1000
CN(C)C/C=C/C(=O)Nc1cccc(-n2cc(-c3ccc(Oc4ccccc4F)cc3)c3c(N)n[nH]c(=O)c32)c1 [Example 92, (E)-N-[3-[4-amino-3-[4-(2-fluorophenoxy)phenyl]-7-oxo-6H-pyrrolo[2,3-d]pyridazin-1-yl]phenyl]-4-(dimethylamino)but-2-enamide]	10 to 1000
CN(C)C/C=C/C(=O)N1CCC(n2cc(-c3ccc(Oc4ccccc4)cc3)c3c(N)n[nH]c(=O)c32)CC1 [Example 44, 4-amino-1-[1-[(E)-4-(dimethylamino)but-2-enoyl]-4-piperidyl]-3-(4-phenoxyphenyl)-6H-pyrrolo[2,3-d]pyridazin-7-one]	10 to 1000
C=CC(=O)N[C@H]1CC[C@@H](n2cc(-c3ccc(Oc4ccccc4F)cc3)c3c(N)n[nH]c(=O)c32)CC1 [Example 104, N-((1s,4s)-4-(4-amino-3-(4-(2-fluorophenoxy)phenyl)-7-oxo-6,7-dihydro-1H-pyrrolo[2,3-d]pyridazin-1-yl)cyclohexyl)acrylamide]	10 to 1000
C=CC(=O)Nc1cccc(-n2cc(-c3ccc(Oc4ccccc4)cc3)c3c(N)n[nH]c(=O)c32)c1 [Example 88, N-(3-(4-amino-7-oxo-3-(4-phenoxyphenyl)-6,7-dihydro-1H-pyrrolo[2,3-d]pyridazin-1-yl)phenyl)acrylamide]	≤ 10
C/C=C/C(=O)N1CCC[C@@H](n2cc(-c3ccc(Oc4c(F)cccc4F)cc3)c3c(N)n[nH]c(=O)c32)C1 [Example 116, 4-amino-3-[4-(2,6-difluorophenoxy)phenyl]-1-[(3R)-1-[(E)-but-2-enoyl]-3-piperidyl]-6H-pyrrolo[2,3-d]pyridazin-7-one]	10 to 1000

tested on: TMD-8 cells; experiment: Cell proliferation assay (CellTiter-Glo), TMD-8 cells; assay type: cell-based; details: 5-day treatment; read-out: TMD8 cells growth IC50
Experimental: TMD-8 and SU-DHL-1 cells were maintained at 37° C. in a humidified atmosphere with 5% CO2 in the recommended medium and serum concentrations. For cell proliferation assay, cells were seeded in 96-well pates at a density of 5,000 to 10,000 cells per well and cultured overnight at 37° C. in recommended medium supplemented with 5-10% FBS. On the next day, the test articles at various concentrations or vehicle control (0.5% DMSO) were added into cell culture. After 5-day treatment, the growth of cells was assayed by the CellTiter-Glo® Luminestceaent Cell Viability Assay (Promega). IC50 values were calculated using GraphPad Prism by plotting the logarithm of the concentration versus percent inhibition of cell growth as compared with the vehicle control.

Compound	IC50 [nM]
4-amino-3-(4-phenoxyphenyl)-1-(1- prop-2-enoyl-3-piperidyl)-6H- pyrazolo[3,4-d]pyridazin-7-one [Example 2]	≤ 10

same assay, conditions: Homo sapiens, TMD8, 120 h; 5-day treatment; read-out: TMD8 cells growth IC50

Compound	IC50 [nM]
CC#CC(=O)N1CC[C@@H](n2nc(-c3ccc(Oc4ccccc4)cc3)c3c(N)n[nH]c(=O)c32)C1 [Example 111, (R)-4-amino-1-(1-(but-2-ynoyl)pyrrolidin-3-yl)-3-(4-phenoxyphenyl)-1H-pyrazolo[3,4-d]pyridazin-7(6H)-one]	≤ 10
CN(C)C/C=C/C(=O)NC1CCC(n2cc(-c3ccc(Oc4ccccc4)cc3)c3c(N)n[nH]c(=O)c32)CC1 (stereo not drawn) [Example 46, (E)-N-[4-[4-amino-7-oxo-3-(4-phenoxyphenyl)-6H-pyrrolo[2,3-d]pyridazin-1-yl]cyclohexyl]-4-(dimethylamino)but-2-enamide]	10 to 1000
CN(C)C/C=C/C(=O)NC1C2CCC1CC(n1cc(-c3ccc(Oc4ccccc4)cc3)c3c(N)n[nH]c(=O)c31)C2 (stereo not drawn) [Example 48, (E)-N-[3-[4-amino-7-oxo-3-(4-phenoxyphenyl)-6H-pyrrolo[2,3-d]pyridazin-1-yl]-8-bicyclo[3.2.1]octanyl]-4-(dimethylamino)but-2-enamide]	10 to 1000
